# Reference: PubChem BioAssay AID2060332 (Molecular Pharmacology Branch, DTP, NCI, 2025)
# System: LG0567-F671-PDC multi-cell spheroid viability
# Test: Anticancer human tumor LG0567-F671-PDC patient-derived lung adenocarcinoma cell line growth inhibition [IpAb]
# Conditions: for IC50: curve of first compound; for viability, T/C: stronger effect = lower value
# Outline: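 Multi-cell spheroids of 60% tumour cells, 25% HUVEC and 15% MSC in ultra-low-attachment U-bottom wells, treated with agents combined with ipatasertib or abemaciclib. Half-log ranges top out near clinical Cmax, or 10 microM when Cmax is unknown.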
# [1] = second compound 0.1 µM, first compound 0.0316 µM
# [2] = second compound 0.1 µM, first compound 0.1 µM
# [3] = second compound 0.1 µM, first compound 0.316 µM
# [4] = second compound 0.1 µM, first compound 1 µM
# [5] = second compound 0.1 µM, first compound 3.16 µM
# [6] = second compound 0.1 µM, first compound 10 µM
# [7] = second compound 0.316 µM, first compound 0.0316 µM
# [8] = second compound 0.316 µM, first compound 0.1 µM
# [9] = second compound 0.316 µM, first compound 0.316 µM
# [10] = second compound 0.316 µM, first compound 1 µM
# [11] = second compound 0.316 µM, first compound 3.16 µM
# [12] = second compound 0.316 µM, first compound 10 µM
# [13] = second compound 1 µM, first compound 0.0316 µM
# [14] = second compound 1 µM, first compound 0.1 µM
# [15] = second compound 1 µM, first compound 0.316 µM
# [16] = second compound 1 µM, first compound 1 µM
# [17] = second compound 1 µM, first compound 3.16 µM
# [18] = second compound 1 µM, first compound 10 µM
# [19] = second compound 3.16 µM, first compound 0.0316 µM
# [20] = second compound 3.16 µM, first compound 0.1 µM
# [21] = second compound 3.16 µM, first compound 0.316 µM
# [22] = second compound 3.16 µM, first compound 1 µM
# [23] = second compound 3.16 µM, first compound 3.16 µM
# [24] = second compound 3.16 µM, first compound 10 µM
# [25] = second compound 10 µM, first compound 0.0316 µM
# [26] = second compound 10 µM, first compound 0.1 µM
# [27] = second compound 10 µM, first compound 0.316 µM
# [28] = second compound 10 µM, first compound 1 µM
# [29] = second compound 10 µM, first compound 3.16 µM
# [30] = second compound 10 µM, first compound 10 µM
# 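Also: viability read after 7 days of drug exposure.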
# 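For viability, T/C in this document: 100% = DMSO vehicle control luminescence.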
compound,measurement,setting,value
C=CC(=O)N1CCN(c2nc(=O)n(-c3c(C)ccnc3C(C)C)c3nc(-c4c(O)cccc4F)c(F)cc23)C(C)C1 (stereo not given) + CC(C)NCC(C(=O)N1CCN(c2ncnc3c2C(C)CC3O)CC1)c1ccc(Cl)cc1,IC50,second compound 0.1 µM,< 31.6 nM
same,IC50,second compound 0.316 µM,< 31.6 nM
same,IC50,second compound 1 µM,< 31.6 nM
same,IC50,second compound 3.16 µM,< 31.6 nM
same,IC50,second compound 10 µM,< 31.6 nM
same,"viability, T/C",[1],20%
same,"viability, T/C",[2],15.1%
same,"viability, T/C",[3],15.1%
same,"viability, T/C",[4],14.7%
same,"viability, T/C",[5],15.9%
same,"viability, T/C",[6],16.6%
same,"viability, T/C",[7],12.9%
same,"viability, T/C",[8],16.1%
same,"viability, T/C",[9],15.5%
same,"viability, T/C",[10],14.8%
same,"viability, T/C",[11],8.74%
same,"viability, T/C",[12],9.44%
same,"viability, T/C",[13],13.8%
same,"viability, T/C",[14],13.9%
same,"viability, T/C",[15],13.1%
same,"viability, T/C",[16],10.5%
same,"viability, T/C",[17],10.2%
same,"viability, T/C",[18],8.39%
same,"viability, T/C",[19],14.9%
same,"viability, T/C",[20],15.8%
same,"viability, T/C",[21],11.4%
same,"viability, T/C",[22],10.6%
same,"viability, T/C",[23],10.4%
same,"viability, T/C",[24],10.6%
same,"viability, T/C",[25],13.5%
same,"viability, T/C",[26],11%
same,"viability, T/C",[27],10.1%
same,"viability, T/C",[28],10%
same,"viability, T/C",[29],12.5%
same,"viability, T/C",[30],9.01%
CC(C)(C)c1cnc(CSc2cnc(NC(=O)C3CCNCC3)s2)o1 + CC(C)NCC(C(=O)N1CCN(c2ncnc3c2C(C)CC3O)CC1)c1ccc(Cl)cc1,IC50,second compound 0.1 µM,169 nM
same,IC50,second compound 0.316 µM,137 nM
same,IC50,second compound 1 µM,158 nM
same,IC50,second compound 3.16 µM,152 nM
same,IC50,second compound 10 µM,148 nM
same,"viability, T/C","second compound 0.1 µM, first compound 0.00949 µM",117%
same,"viability, T/C","second compound 0.1 µM, first compound 0.03 µM",110%
same,"viability, T/C","second compound 0.1 µM, first compound 0.0949 µM",96.3%
same,"viability, T/C","second compound 0.1 µM, first compound 0.3 µM",3.55%
same,"viability, T/C","second compound 0.1 µM, first compound 0.949 µM",1.37%
same,"viability, T/C","second compound 0.1 µM, first compound 3 µM",0.93%
same,"viability, T/C","second compound 0.316 µM, first compound 0.00949 µM",73.6%
same,"viability, T/C","second compound 0.316 µM, first compound 0.03 µM",111%
same,"viability, T/C","second compound 0.316 µM, first compound 0.0949 µM",72.7%
same,"viability, T/C","second compound 0.316 µM, first compound 0.3 µM",2.55%
same,"viability, T/C","second compound 0.316 µM, first compound 0.949 µM",1.26%
same,"viability, T/C","second compound 0.316 µM, first compound 3 µM",0.62%
same,"viability, T/C","second compound 1 µM, first compound 0.00949 µM",95.6%
same,"viability, T/C","second compound 1 µM, first compound 0.03 µM",117%
same,"viability, T/C","second compound 1 µM, first compound 0.0949 µM",88.8%
same,"viability, T/C","second compound 1 µM, first compound 0.3 µM",2.06%
same,"viability, T/C","second compound 1 µM, first compound 0.949 µM",0.88%
same,"viability, T/C","second compound 1 µM, first compound 3 µM",0.72%
same,"viability, T/C","second compound 3.16 µM, first compound 0.00949 µM",97.9%
same,"viability, T/C","second compound 3.16 µM, first compound 0.03 µM",113%
same,"viability, T/C","second compound 3.16 µM, first compound 0.0949 µM",82.9%
same,"viability, T/C","second compound 3.16 µM, first compound 0.3 µM",2.53%
same,"viability, T/C","second compound 3.16 µM, first compound 0.949 µM",0.89%
same,"viability, T/C","second compound 3.16 µM, first compound 3 µM",0.79%
same,"viability, T/C","second compound 10 µM, first compound 0.00949 µM",79.2%
same,"viability, T/C","second compound 10 µM, first compound 0.03 µM",74.1%
same,"viability, T/C","second compound 10 µM, first compound 0.0949 µM",88%
same,"viability, T/C","second compound 10 µM, first compound 0.3 µM",1.97%
same,"viability, T/C","second compound 10 µM, first compound 0.949 µM",0.87%
same,"viability, T/C","second compound 10 µM, first compound 3 µM",0.7%
Cn1ncc(Cl)c1-c1cc(C(=O)NC(CN)Cc2cccc(F)c2)sc1Cl (stereo not given) + CC(C)NCC(C(=O)N1CCN(c2ncnc3c2C(C)CC3O)CC1)c1ccc(Cl)cc1,IC50,second compound 0.1 µM,3220 nM
same,IC50,second compound 0.316 µM,3410 nM
same,IC50,second compound 1 µM,1910 nM
same,IC50,second compound 3.16 µM,3020 nM
same,IC50,second compound 10 µM,2390 nM
same,"viability, T/C",[1],68.7%
same,"viability, T/C",[2],68.3%
same,"viability, T/C",[3],74.8%
same,"viability, T/C",[4],81.1%
same,"viability, T/C",[5],50.8%
same,"viability, T/C",[6],0.2%
same,"viability, T/C",[7],79.6%
same,"viability, T/C",[8],81.4%
same,"viability, T/C",[9],81.8%
same,"viability, T/C",[10],61.7%
same,"viability, T/C",[11],58.2%
same,"viability, T/C",[12],0.18%
same,"viability, T/C",[13],71.1%
same,"viability, T/C",[14],89.5%
same,"viability, T/C",[15],71.3%
same,"viability, T/C",[16],67.1%
same,"viability, T/C",[17],37.1%
same,"viability, T/C",[18],0.16%
same,"viability, T/C",[19],70%
same,"viability, T/C",[20],82.5%
same,"viability, T/C",[21],76.3%
same,"viability, T/C",[22],51.5%
same,"viability, T/C",[23],57%
same,"viability, T/C",[24],0.39%
same,"viability, T/C",[25],77.5%
same,"viability, T/C",[26],76.9%
same,"viability, T/C",[27],83.6%
same,"viability, T/C",[28],60.2%
same,"viability, T/C",[29],46.6%
same,"viability, T/C",[30],0.19%
Cn1nccc1Nc1nccc(-c2ccn(C(CO)c3ccc(Cl)c(F)c3)c(=O)c2)n1 (stereo not given) + CC(C)NCC(C(=O)N1CCN(c2ncnc3c2C(C)CC3O)CC1)c1ccc(Cl)cc1,IC50,second compound 0.1 µM,128 nM
same,IC50,second compound 0.316 µM,79.9 nM
same,IC50,second compound 1 µM,152 nM
same,IC50,second compound 3.16 µM,160 nM
same,IC50,second compound 10 µM,192 nM
same,"viability, T/C",[1],60.9%
same,"viability, T/C",[2],51.7%
same,"viability, T/C",[3],44.4%
same,"viability, T/C",[4],34.2%
same,"viability, T/C",[5],29.1%
same,"viability, T/C",[6],23.9%
same,"viability, T/C",[7],62.1%
same,"viability, T/C",[8],45.6%
same,"viability, T/C",[9],36.7%
same,"viability, T/C",[10],32.7%
same,"viability, T/C",[11],26%
same,"viability, T/C",[12],21.3%
same,"viability, T/C",[13],62.4%
same,"viability, T/C",[14],52.9%
same,"viability, T/C",[15],43.8%
same,"viability, T/C",[16],25.9%
same,"viability, T/C",[17],20.2%
same,"viability, T/C",[18],15.9%
same,"viability, T/C",[19],67.2%
same,"viability, T/C",[20],58%
same,"viability, T/C",[21],38.6%
same,"viability, T/C",[22],31.7%
same,"viability, T/C",[23],19.3%
same,"viability, T/C",[24],9.79%
same,"viability, T/C",[25],60.1%
same,"viability, T/C",[26],57.4%
same,"viability, T/C",[27],44.8%
same,"viability, T/C",[28],27.2%
same,"viability, T/C",[29],16.7%
same,"viability, T/C",[30],9.92%
Cn1ncnc1[C@H]1c2n[nH]c(=O)c3cc(F)cc(c23)N[C@@H]1c1ccc(F)cc1 + CC(C)NCC(C(=O)N1CCN(c2ncnc3c2C(C)CC3O)CC1)c1ccc(Cl)cc1,IC50,second compound 0.1 µM,21.9 nM
same,IC50,second compound 0.316 µM,9.77 nM
same,IC50,second compound 1 µM,18.1 nM
same,IC50,second compound 3.16 µM,38.1 nM
same,IC50,second compound 10 µM,20.5 nM
same,"viability, T/C","second compound 0.1 µM, first compound 0.000316 µM",104%
same,"viability, T/C","second compound 0.1 µM, first compound 0.001 µM",97.9%
same,"viability, T/C","second compound 0.1 µM, first compound 0.00316 µM",68.9%
same,"viability, T/C","second compound 0.1 µM, first compound 0.01 µM",64.9%
same,"viability, T/C",[1],42%
same,"viability, T/C",[2],41.1%
same,"viability, T/C","second compound 0.316 µM, first compound 0.000316 µM",69.1%
same,"viability, T/C","second compound 0.316 µM, first compound 0.001 µM",70.5%
same,"viability, T/C","second compound 0.316 µM, first compound 0.00316 µM",64.1%
same,"viability, T/C","second compound 0.316 µM, first compound 0.01 µM",44.9%
same,"viability, T/C",[7],56.4%
same,"viability, T/C",[8],47.8%
same,"viability, T/C","second compound 1 µM, first compound 0.000316 µM",73.6%
same,"viability, T/C","second compound 1 µM, first compound 0.001 µM",74.5%
same,"viability, T/C","second compound 1 µM, first compound 0.00316 µM",75%
same,"viability, T/C","second compound 1 µM, first compound 0.01 µM",68.5%
same,"viability, T/C",[13],27.8%
same,"viability, T/C",[14],37.7%
same,"viability, T/C","second compound 3.16 µM, first compound 0.000316 µM",79.3%
same,"viability, T/C","second compound 3.16 µM, first compound 0.001 µM",71.3%
same,"viability, T/C","second compound 3.16 µM, first compound 0.00316 µM",77.5%
same,"viability, T/C","second compound 3.16 µM, first compound 0.01 µM",59.2%
same,"viability, T/C",[19],53.6%
same,"viability, T/C",[20],37.6%
same,"viability, T/C","second compound 10 µM, first compound 0.000316 µM",63.9%
same,"viability, T/C","second compound 10 µM, first compound 0.001 µM",70.5%
same,"viability, T/C","second compound 10 µM, first compound 0.00316 µM",70.6%
same,"viability, T/C","second compound 10 µM, first compound 0.01 µM",50.8%
same,"viability, T/C",[25],49.6%
same,"viability, T/C",[26],35.3%
